Experimental data as given in patent US11331299B2, “Medicinal use of serrulatane diterpenes” (The University of Sydney, priority 2016, dated 2022).
Like-named read-outs stand apart in the source and are kept apart here.

What was measured:
[1] = target: T1, EP300 (h) bromodomain (Homo sapiens, UniProt Q09472); assay: Epigenetic binding assay, Bromodomain; conditions: for inhibition at 10 µM: read-out: % Inhibition of Control Specific Binding
T1 construct: Bromodomain
T1 sequence (Q09472 1049-1156 limits assumed): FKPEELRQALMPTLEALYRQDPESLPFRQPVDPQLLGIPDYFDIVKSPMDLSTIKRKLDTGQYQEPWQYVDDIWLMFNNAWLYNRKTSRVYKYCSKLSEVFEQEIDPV

[2] = target: T2, PB1(4) (h) bromodomain (Homo sapiens, UniProt Q86U86); assay: Epigenetic binding assay, Bromodomain; conditions: 10 μM; read-out: % Inhibition of Control Specific Binding
T2 construct: Bromodomain
T2 sequence (Q86U86 518-625 limits assumed): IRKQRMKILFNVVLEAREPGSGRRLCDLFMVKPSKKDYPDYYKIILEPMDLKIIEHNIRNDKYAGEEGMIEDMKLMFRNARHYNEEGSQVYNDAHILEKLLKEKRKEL

[3] = target: T3, SP140 (h) bromodomain (Homo sapiens, UniProt Q13342); assay: Epigenetic binding assay, Bromodomain; parameters: inhibition of binding, 1st / inhibition of binding, 2nd / inhibition of binding, Mean: unit: %; conditions: for inhibition at 10 µM: read-out: % Inhibition of Control Specific Binding
T3 construct: SP140 (h) bromodomain
T3 sequence (Q13342 754-857 limits assumed): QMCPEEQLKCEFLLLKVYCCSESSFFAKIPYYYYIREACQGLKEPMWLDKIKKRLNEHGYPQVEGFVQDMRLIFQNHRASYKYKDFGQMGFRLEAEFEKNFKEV

[4] = target: T4, BRD2(1) (h) bromodomain (Homo sapiens, UniProt P25440); assay: Epigenetic binding assay, Bromodomain; conditions: 10 μM; for inhibition at 10 µM: read-out: % Inhibition of Control Specific Binding
T4 construct: Bromodomain
T4 sequence (P25440 74-180 limits assumed): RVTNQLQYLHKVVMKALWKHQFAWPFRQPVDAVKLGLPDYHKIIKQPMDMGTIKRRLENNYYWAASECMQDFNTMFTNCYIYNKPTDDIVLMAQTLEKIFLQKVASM

[5] = target: T5, PHF20(1) Tudor domain (Homo sapiens, UniProt Q9BVI0); assay: Epigenetic binding assay, Tudor domain; conditions: read-out: % Inhibition of Control Specific Binding
T5 construct: Crystal structures of the Tudor domains of human PHF20; Eurofins CEREP (France), contract laboratory
T5 sequence (Q9BVI0 4-69 limits assumed): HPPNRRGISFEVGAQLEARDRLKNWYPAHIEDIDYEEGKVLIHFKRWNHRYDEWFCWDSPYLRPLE

[6] = system: H3K4 me2; assay: Cell-based detection methyl modifications; conditions: read-out: % Inhibition of Control Values
[7] = system: H3K9 ac; assay: Cell-based detection methyl modifications; conditions: read-out: % Inhibition of Control Values
[8] = target: T6, EHMT1 (h) (Homo sapiens, UniProt Q9H9B1); assay: Epigenetic enzyme assay, Methyltransferases (MTs); format: biochemical; conditions: 10 μM; read-out: % Inhibition of Control Values
T6 sequence (Q9H9B1 1-1298): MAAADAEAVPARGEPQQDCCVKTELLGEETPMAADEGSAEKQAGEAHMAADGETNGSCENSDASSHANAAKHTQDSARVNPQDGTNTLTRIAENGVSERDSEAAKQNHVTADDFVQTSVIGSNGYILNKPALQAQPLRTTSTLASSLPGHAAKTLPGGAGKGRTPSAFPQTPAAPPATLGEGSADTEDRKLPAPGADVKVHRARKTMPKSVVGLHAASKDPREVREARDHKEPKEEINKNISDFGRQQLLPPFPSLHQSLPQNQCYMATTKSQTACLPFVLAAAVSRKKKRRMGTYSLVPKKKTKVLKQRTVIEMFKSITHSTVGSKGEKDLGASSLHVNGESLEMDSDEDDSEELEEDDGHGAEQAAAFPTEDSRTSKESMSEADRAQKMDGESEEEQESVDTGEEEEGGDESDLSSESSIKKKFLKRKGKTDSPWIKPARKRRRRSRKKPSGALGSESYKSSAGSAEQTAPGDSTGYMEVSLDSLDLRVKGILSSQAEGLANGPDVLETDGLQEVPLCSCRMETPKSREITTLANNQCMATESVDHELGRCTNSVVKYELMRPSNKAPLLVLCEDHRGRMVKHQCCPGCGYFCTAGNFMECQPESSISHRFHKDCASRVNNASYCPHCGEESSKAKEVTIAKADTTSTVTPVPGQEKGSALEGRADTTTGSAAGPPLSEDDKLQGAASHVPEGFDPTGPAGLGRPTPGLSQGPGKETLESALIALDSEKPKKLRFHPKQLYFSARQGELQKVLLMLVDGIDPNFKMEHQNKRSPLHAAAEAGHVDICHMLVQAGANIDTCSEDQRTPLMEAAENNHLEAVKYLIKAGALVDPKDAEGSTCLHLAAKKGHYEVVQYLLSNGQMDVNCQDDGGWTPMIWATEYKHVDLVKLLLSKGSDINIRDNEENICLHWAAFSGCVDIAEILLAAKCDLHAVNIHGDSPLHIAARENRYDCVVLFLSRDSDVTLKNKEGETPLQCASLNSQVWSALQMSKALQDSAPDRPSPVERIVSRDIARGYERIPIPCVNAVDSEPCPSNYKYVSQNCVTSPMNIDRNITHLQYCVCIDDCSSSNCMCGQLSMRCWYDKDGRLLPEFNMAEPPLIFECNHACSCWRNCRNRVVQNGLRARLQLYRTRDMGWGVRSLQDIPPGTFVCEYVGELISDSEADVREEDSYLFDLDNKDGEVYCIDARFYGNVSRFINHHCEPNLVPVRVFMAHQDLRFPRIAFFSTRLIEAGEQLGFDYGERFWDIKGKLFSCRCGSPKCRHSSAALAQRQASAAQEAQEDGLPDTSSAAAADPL

[9] = system: MLL4(h) complex; assay: Epigenetic enzyme assay, Methyltransferases (MTs); format: biochemical, human; conditions: 10 μM
[10] = target: SUV39H2 (h) (Homo sapiens, UniProt Q9H5I1); assay: Epigenetic enzyme assay, Methyltransferases (MTs); format: biochemical; conditions: 10 μM; read-out: % Inhibition of Control Values
Sequence of SUV39H2 (h) (Q9H5I1 whole entry): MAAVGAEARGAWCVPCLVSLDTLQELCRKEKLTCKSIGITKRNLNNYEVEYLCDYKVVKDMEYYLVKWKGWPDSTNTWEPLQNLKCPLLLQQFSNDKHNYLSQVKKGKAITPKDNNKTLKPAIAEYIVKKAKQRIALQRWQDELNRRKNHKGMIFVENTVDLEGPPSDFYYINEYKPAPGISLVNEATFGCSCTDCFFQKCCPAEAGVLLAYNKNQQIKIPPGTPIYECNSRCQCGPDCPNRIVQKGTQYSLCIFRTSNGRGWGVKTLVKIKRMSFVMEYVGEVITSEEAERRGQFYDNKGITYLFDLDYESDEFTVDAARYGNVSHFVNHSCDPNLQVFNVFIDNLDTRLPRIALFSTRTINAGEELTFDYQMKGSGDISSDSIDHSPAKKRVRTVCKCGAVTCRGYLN

[11] = target: PKBalpha/AKT1(h) (substrate histone H3 full length) (Homo sapiens, UniProt P31749); assay: Epigenetic enzyme assay, Kinases; format: biochemical; conditions: read-out: % Inhibition of Control Values
Sequence of PKBalpha/AKT1(h) (substrate histone H3 full length) (P31749 whole entry): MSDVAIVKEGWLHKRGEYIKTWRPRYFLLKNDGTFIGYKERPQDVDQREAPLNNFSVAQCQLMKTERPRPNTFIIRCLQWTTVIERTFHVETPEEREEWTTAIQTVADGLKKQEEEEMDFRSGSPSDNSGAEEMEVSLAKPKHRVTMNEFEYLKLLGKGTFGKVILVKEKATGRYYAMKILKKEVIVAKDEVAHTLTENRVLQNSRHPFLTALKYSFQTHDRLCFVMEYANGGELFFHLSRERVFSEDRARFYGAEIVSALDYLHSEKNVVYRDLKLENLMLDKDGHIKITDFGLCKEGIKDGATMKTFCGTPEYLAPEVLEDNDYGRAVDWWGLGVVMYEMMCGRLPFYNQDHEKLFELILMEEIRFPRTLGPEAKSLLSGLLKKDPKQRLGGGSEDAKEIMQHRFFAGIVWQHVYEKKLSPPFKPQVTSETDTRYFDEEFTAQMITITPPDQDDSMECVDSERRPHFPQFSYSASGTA

[12] = target: Rsk2(h) (substrate histone H3 full length) (Homo sapiens, UniProt P51812); assay: Epigenetic enzyme assay, Kinases; format: biochemical; conditions: read-out: % Inhibition of Control Values
Sequence of Rsk2(h) (substrate histone H3 full length) (P51812 whole entry): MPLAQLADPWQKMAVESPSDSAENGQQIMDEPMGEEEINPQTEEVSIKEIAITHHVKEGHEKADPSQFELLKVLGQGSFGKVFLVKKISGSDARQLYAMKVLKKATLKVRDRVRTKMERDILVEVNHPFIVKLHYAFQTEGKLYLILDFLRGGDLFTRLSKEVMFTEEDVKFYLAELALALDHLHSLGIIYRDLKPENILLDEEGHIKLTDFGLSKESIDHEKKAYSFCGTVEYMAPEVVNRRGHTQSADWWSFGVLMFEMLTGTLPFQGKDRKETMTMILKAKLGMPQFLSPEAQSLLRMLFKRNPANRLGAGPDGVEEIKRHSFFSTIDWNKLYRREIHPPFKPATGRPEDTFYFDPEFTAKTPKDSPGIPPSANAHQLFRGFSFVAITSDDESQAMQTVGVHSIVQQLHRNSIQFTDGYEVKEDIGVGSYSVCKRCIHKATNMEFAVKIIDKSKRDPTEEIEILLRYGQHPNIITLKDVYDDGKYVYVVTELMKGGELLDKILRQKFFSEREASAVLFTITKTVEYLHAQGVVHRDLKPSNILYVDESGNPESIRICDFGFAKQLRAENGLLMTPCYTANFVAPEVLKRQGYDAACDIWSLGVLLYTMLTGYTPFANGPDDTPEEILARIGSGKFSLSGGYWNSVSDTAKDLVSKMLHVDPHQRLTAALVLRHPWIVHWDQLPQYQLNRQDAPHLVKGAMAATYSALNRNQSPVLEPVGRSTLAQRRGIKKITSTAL

[13] = target: T7, Thioredoxin Reductase (Escherichia coli, UniProt P0A9P4); assay: Thioredoxin Reductase; format: biochemical, E. coli
T7 construct: host or cells: E. coli
T7 sequence (P0A9P4 2-321): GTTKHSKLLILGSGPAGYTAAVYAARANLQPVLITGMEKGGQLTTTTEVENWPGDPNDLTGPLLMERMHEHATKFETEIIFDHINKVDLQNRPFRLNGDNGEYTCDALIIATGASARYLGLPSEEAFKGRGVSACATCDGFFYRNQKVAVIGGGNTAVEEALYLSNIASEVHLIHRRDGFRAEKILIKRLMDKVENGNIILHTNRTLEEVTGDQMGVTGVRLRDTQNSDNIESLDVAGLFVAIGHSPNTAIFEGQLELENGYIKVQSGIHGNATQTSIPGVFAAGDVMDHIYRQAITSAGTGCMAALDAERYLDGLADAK
Protocol: The in vitro pharmacological studies were conducted by Eurofins PanLab (Taiwan) using the parameters shown in Table 13 with respect to appropriate literature references.

[14] = system: SW480; assay: OncoPanel cell proliferation assay (10-day); format: cell-based, human
[15] = system: IM-9; assay: OncoPanel cell proliferation assay (10-day); format: cell-based, human
[16] = assay year 2015, read-out: % Control Response

CC(C)=CCC[C@H](CO)[C@@H]1CC[C@@H](C)c2c1cc(C)c(O)c2O [Compound 1, 7,8,18-trihydroxyserrulat-14-ene]
% Inhibition of Control Specific Binding ([1]; 10 μM): significant inhibitory activity | inhibition at 10 µM ([1]; 10 μM): 89% | IC50 ([1]; Table 9, inhibition/concentration-response curve): 4500 nM | inhibition at 10 µM [2]: 41% | % Inhibition of Control Specific Binding ([3]; 10 μM): significant inhibitory activity | inhibition at 10 µM ([3]; 10 μM): 84% | inhibition of binding, 1st ([3]; 3.0E−05M): 102.3 | inhibition of binding, 2nd ([3]; 3.0E−05M): 102.3 | inhibition of binding, Mean ([3]; 3.0E−05M): 102.3 | inhibition of binding, 1st ([3]; 3.0E−06M): 8.4 | inhibition of binding, 2nd ([3]; 3.0E−06M): 11.3 | inhibition of binding, Mean ([3]; 3.0E−06M): 9.9 | inhibition of binding, 1st ([3]; 3.0E−07M): −14.1 | inhibition of binding, 2nd ([3]; 3.0E−07M): −11.0 | inhibition of binding, Mean ([3]; 3.0E−07M): −12.6 | inhibition of binding, 1st ([3]; 3.0E−08M): −9.7 | inhibition of binding, 2nd ([3]; 3.0E−08M): −14.6 | inhibition of binding, Mean ([3]; 3.0E−08M): −12.1 | inhibition of binding, 1st ([3]; 3.0E−09M): −6.0 | inhibition of binding, 2nd ([3]; 3.0E−09M): −8.6 | inhibition of binding, Mean ([3]; 3.0E−09M): −7.3 | IC50 ([3]; Table 9, inhibition/concentration-response curve, read-out: IC50): 3800 nM | % Inhibition of Control Specific Binding [4]: significant inhibitory activity | inhibition at 10 µM [4]: 60% | inhibition at 10 µM [5]: 7% | inhibition at 10 µM [6]: -5% | inhibition at 10 µM [7]: 17% | inhibition at 10 µM [8]: 13% | % Inhibition of Control Values [9]: −16% | inhibition at 10 µM [10]: -8% | inhibition at 10 µM [11]: -1% | inhibition at 10 µM [12]: 5% | % Control Response ([13]; 10 μM, assay year 2014): inhibited the activity | remaining activity at 10 µM ([13]; assay year 2014, read-out: % Control Response): 71% | remaining activity at 10 µM [13, 16]: 35% | EC50 ([14]; Homo sapiens, SW480, Colon, read-out: Cell Count EC50): 1210 nM | GI50 ([14]; Homo sapiens, SW480, Colon, read-out: Cell Count GI50): 1200 nM | IC50 ([14]; Homo sapiens, SW480, Colon, read-out: Cell Count IC50): 1210 nM | Relative cell count (%) Mean ([14]; SW480, 3.00E+00 microM): 4.1% | Relative cell count (%) Mean ([14]; SW480, 3.00E+01 microM): 0.4% | Relative cell count (%) Mean ([14]; SW480, 3.01E−01 microM): 93.5% | Relative cell count (%) Mean ([14]; SW480, 3.01E−02 microM): 99.5% | Relative cell count (%) Mean ([14]; SW480, 3.02E−03 microM): 116.5% | Relative cell count (%) Mean ([14]; SW480, 9.49E+00 microM): 0.2% | Relative cell count (%) Mean ([14]; SW480, 9.51E−01 microM): 69.9% | Relative cell count (%) Mean ([14]; SW480, 9.52E−02 microM): 94.1% | Relative cell count (%) Mean ([14]; SW480, 9.53E−03 microM): 103.7% | Relative cell count (%) Mean ([14]; SW480, 9.55E−04 microM): 111.8% | EC50 ([15]; Homo sapiens, IM-9, Myeloma, read-out: Cell Count EC50): 420 nM | GI50 ([15]; Homo sapiens, IM-9, Myeloma, read-out: Cell Count GI50): 420 nM | IC50 ([15]; Homo sapiens, IM-9, Myeloma, read-out: Cell Count IC50): 420 nM | Relative cell count (%) Mean ([15]; IM-9, 3.00E+00 microM): 0.1% | Relative cell count (%) Mean ([15]; IM-9, 3.00E+01 microM): 0.0% | Relative cell count (%) Mean ([15]; IM-9, 3.01E−01 microM): 97.5% | Relative cell count (%) Mean ([15]; IM-9, 3.01E−02 microM): 107.3% | Relative cell count (%) Mean ([15]; IM-9, 3.02E−03 microM): 102.8% | Relative cell count (%) Mean ([15]; IM-9, 9.49E+00 microM): 0.1% | Relative cell count (%) Mean ([15]; IM-9, 9.51E−01 microM): 0.0% | Relative cell count (%) Mean ([15]; IM-9, 9.52E−02 microM): 97.7% | Relative cell count (%) Mean ([15]; IM-9, 9.53E−03 microM): 103.1% | Relative cell count (%) Mean ([15]; IM-9, 9.55E−04 microM): 94.9%

CC(C)=CCC[C@@H]1COc2c(C)cc(O)c3c2[C@H]1CC[C@H]3C [Compound 3, 5,18-epoxy-8-hydroxyserrulat-14-ene]
inhibition at 10 µM ([1]; 10 μM): 40% | inhibition at 10 µM [2]: 16% | inhibition at 10 µM ([3]; 10 μM): 1% | inhibition at 10 µM [4]: 19% | inhibition at 10 µM [5]: 2% | inhibition at 10 µM [6]: -9% | inhibition at 10 µM [7]: -1% | inhibition at 10 µM [8]: 63% | % Inhibition of Control Values [9]: −4% | inhibition at 10 µM [10]: 14% | inhibition at 10 µM [11]: -15% | inhibition at 10 µM [12]: -4% | remaining activity at 10 µM [13, 16]: 9%
